Results on four molecules are retold here after patent US20180243325A1, “METHOD FOR INHIBITING ABSORPTION OF AND/OR PROMOTING EXCRETION OF LIPIDS USING D-PSICOSE” (CJ CHEILJEDANG CORPORATION, priority 2015, published 2018).

For one assay, the system named is high-fat diet-induced obese mice. Description: Hepatic tissue morphologies (H&E). In kind it is in vivo, C57BL/6J mice. The conditions noted are these: FIG. 4C, 200×, HFD+5% w/w in diet, 16 weeks. How it is done:
(§1) First, 4-week-old male C57BL/6J mice (60 total) were purchased from Jackson Laboratory. The animals were acclimated to the vivarium in a thermo-hygrostat (20-23° C., 45-65%) under a 12 h light/dark cycle and fed a pelletized commercial non-purified diet for 1 week after arrival. The mice were then randomly divided into 6 groups (n=10) and fed the respective experimental diets for 16 weeks: normal diet group (ND, American Institute of Nutrition (AIN)-76 semi-synthetic diet), high-fat diet group (HFD, 20% fat+1% cholesterol based on AIN-76 diet), PSI group (HFD+5% D-psicose, w/w, Sigma Chemical Company), ERY group (HFD+5% erythritol, w/w, Sigma Chemical Company), GLU group (HFD+5% D-glucose, w/w, Sigma Chemical Company), and FRU group (HFD+5% D-fructose, w/w, Sigma Chemical Company). All high-fat diet-fed groups were allowed to ingest the same calories by pair feeding based on the PSI group. The mice had ad libitum access to distilled water during the experimental period. Their feed intakes and body weights were measured daily and biweekly, respectively. The organ weights and the adipose tissue weights of the mice were measured after sacrificing the animals.
Liver tissues were removed from the mice in the normal diet group (ND) and high-fat diet groups (HFD, ERY, GLU, FRU, and PSI) and fixed in a buffer solution of 10% formalin. The fixed liver tissues were embedded in paraffin. […] sections were prepared from the liver tissues and their cross-sections were dyed with hematoxylin and eosin. Stained areas were observed using an optical microscope at a magnification of 200× (Nikon, Tokyo, Japan).
On to `OC[C@@H](O)[C@@H](O)CO` [ERY, erythritol], for which the “accumulation / size of adipocytes in the liver tissues” value (from here on “accumulation / size of adipocytes”) is recorded as “more distinctly observed than in the liver tissues of the ND group”.
On the same count and under the same terms, under `O=C[C@H](O)[C@@H](O)[C@H](O)[C@H](O)CO` [GLU, D-glucose] stands “more distinctly observed than in the liver tissues of the ND group”.
Take `O=C(CO)[C@H](O)[C@H](O)[C@H](O)CO` [PSI, D-psicose]: the “accumulation / size of adipocytes” value is “smaller than that in the liver tissues of other high-fat diet groups”.
In the case of `O=C(CO)[C@@H](O)[C@H](O)[C@H](O)CO` [FRU, D-fructose], the “accumulation / size of adipocytes” value is “more distinctly observed than in the liver tissues of the ND group”.

For the next assay, the system named is CPT2 (Carnitine palmitoyltransferase 2, 12896). Briefly: Hepatic mRNA expression, real-time quantitative PCR: CPT2. In kind it is in vivo, C57BL/6J mice. The conditions noted are these: FIG. 6, liver, HFD+5% w/w in diet, 16 weeks. How it is done: as §1
(§2) Samples were prepared and analyzed as previously described. Specifically, total RNA was synthesized into cDNA using a QuantiTect Reverse Transcription kit (QIAGEN Gmb1h, Hilden, Germany). RNA expression was quantified with real-time quantitative PCR using a QuantiTect SYBR Green PCR kit (QIAGEN Gmb1h, Hilden, Germany). Primers were designed to detect FAS (fatty acid synthase, 14101), ACC1 (Acetyl-CoA carboxylase 1, 107476), CPT1α (Carnitine palmitoyltransferase 1α, 12894), and CPT2 (Carnitine palmitoyltransferase 2, 12896). GAPDH was used as an internal transcription marker. The reaction was performed a total of 40 cycles (each consisting of 15 sec at 94° C., 30 sec at 58° C., 30 sec at 72° C., and 15 sec at 65° C.). Fluorescence signals were monitored every cycle and the resulting threshold cycles (Ct) were analyzed. mRNA expression in each experimental group was quantified using a CFX96 Real time system (Bio-rad, USA).
In the case of `OC[C@@H](O)[C@@H](O)CO` [ERY, erythritol], the “hepatic mRNA expression level of CPT2” value is on record as “significantly lower than those in the ND group”.
On the same count and under the same terms, under `O=C[C@H](O)[C@@H](O)[C@H](O)[C@H](O)CO` [GLU, D-glucose] stands “significantly lower than those in the ND group”; under `O=C(CO)[C@H](O)[C@H](O)[C@H](O)CO` [PSI, D-psicose], “much significantly lower than those in the ND group”; under `O=C(CO)[C@@H](O)[C@H](O)[C@H](O)CO` [FRU, D-fructose], “significantly lower than those in the ND group”.

The next assay concerns high-fat diet-induced obese mice. Briefly: Lipid excretion in feces. In kind it is in vivo, C57BL/6J mice. The conditions noted are these: FIG. 7, HFD+5% w/w in diet, 16 weeks. The method, then: as §1
Lipids were extracted from feces from mice in the normal diet group (ND) and the high-fat diet groups (HFD, ERY, GLU, FRU, and PSI) and dried. Then, each of the dried lipid extracts was dissolved in 1 ml of ethanol. 200 μl of the lipid solution was emulsified in a solution of Triton X-100 and sodium cholate in distilled water. Triglyceride, cholesterol, and fatty acid levels in the feces were analyzed using the same enzymatic kits as those used in Example 2.
On to `OC[C@@H](O)[C@@H](O)CO` [ERY, erythritol], for which the “cholesterol level in the feces” value is “significantly higher than those from the normal diet group”, the “fatty acid level in the feces” value is recorded as “significantly higher than those from the normal diet group” and the “triglyceride level in the feces” value is recorded as “significantly higher than those from the normal diet group”.
As for `O=C[C@H](O)[C@@H](O)[C@H](O)[C@H](O)CO` [GLU, D-glucose], the “cholesterol level in the feces” value is listed as “significantly higher than those from the normal diet group”, the “fatty acid level in the feces” value is reported as “significantly higher than those from the normal diet group” and the “triglyceride level in the feces” value was “significantly higher than those from the normal diet group”.
With `O=C(CO)[C@H](O)[C@H](O)[C@H](O)CO` [PSI, D-psicose], the “cholesterol level in the feces” value was “significantly higher than those from other high-fat diet groups”, the “fatty acid level in the feces” value is “significantly higher than those from other high-fat diet groups” and the “triglyceride level in the feces” value is given as “significantly higher than those from other high-fat diet groups”.
`O=C(CO)[C@@H](O)[C@H](O)[C@H](O)CO` [FRU, D-fructose]: the “cholesterol level in the feces” value is recorded as “significantly higher than those from the normal diet group”, the “fatty acid level in the feces” value is listed as “significantly higher than those from the normal diet group” and the “triglyceride level in the feces” value is “significantly higher than those from the normal diet group”.

A further assay deals with fatty acid synthase (FAS). Briefly: FAS activity in epididymal white adipose tissue. In kind it is in vivo, C57BL/6J mice. The conditions noted are these: FIG. 5A, HFD+5% w/w in diet, 16 weeks. The method, then: as §1, with “animals. Samples were prepared and analyzed according to the method developed by Hulcher and Oleson. Specifically, the activity of fatty acid synthase (FAS) as a lipid regulating enzyme of epididymal white adipose tissue was measured by spectrophotometric assay according to the method described by Nepokroeff et al. Each sample was mixed with 100 μl of cytoplasmic fraction and the mixture was allowed to react at 30° C. for 2 min. A reduction in absorbance at 340 nm was measured. FAS activity units were expressed as nanomoles (nmol) of NADPH oxidized for 1 min per mg of cytoplasmic fraction. Fatty acid β-oxidation activity was measured by monitoring the reduction of NAD^+ to NADH in the presence of palmitoyl-CoA, as described by Lazarow. β-oxidation activity units were expressed as nanomoles (nmol) of NADH produced for 1 min per mg of mitochondrial protein.” for “animals.”
In the case of `OC[C@@H](O)[C@@H](O)CO` [ERY, erythritol], the “FAS activity in adipose tissue” value is given as “increased significantly compared to those in the ND group”.
Same read-out and setting: to `O=C[C@H](O)[C@@H](O)[C@H](O)[C@H](O)CO` [GLU, D-glucose] belongs “increased significantly compared to those in the ND group”.
The same measure, in the same setting: under `O=C(CO)[C@H](O)[C@H](O)[C@H](O)CO` [PSI, D-psicose] stands “decreased significantly compared to those in other high-fat diet groups”.
In the case of `O=C(CO)[C@@H](O)[C@H](O)[C@H](O)CO` [FRU, D-fructose], the “FAS activity in adipose tissue” value is reported as “increased significantly compared to those in the ND group”.

Another assay deals with CPT1α (Carnitine palmitoyltransferase 1α, 12894). Description: Hepatic mRNA expression, real-time quantitative PCR: CPT1α. In kind it is in vivo, C57BL/6J mice. The conditions noted are these: FIG. 6, liver, HFD+5% w/w in diet, 16 weeks. The method, then:
as §1, §2
Take `OC[C@@H](O)[C@@H](O)CO` [ERY, erythritol]: the “hepatic mRNA expression level of CPT1α” value is reported as “significantly lower than those in the ND group”.
On the same count and under the same terms, to `O=C[C@H](O)[C@@H](O)[C@H](O)[C@H](O)CO` [GLU, D-glucose] belongs “significantly lower than those in the ND group”; to `O=C(CO)[C@H](O)[C@H](O)[C@H](O)CO` [PSI, D-psicose], “much significantly lower than those in the ND group”.
On the same count and under the same terms, under `O=C(CO)[C@@H](O)[C@H](O)[C@H](O)CO` [FRU, D-fructose] stands “significantly lower than those in the ND group”.

The test system of another assay is ACC1 (Acetyl-CoA carboxylase 1, 107476). Description: Hepatic mRNA expression, real-time quantitative PCR: ACC1. In kind it is in vivo, C57BL/6J mice. The conditions noted are these: FIG. 6, liver, HFD+5% w/w in diet, 16 weeks. The method, then: as §1, §2
Regarding `OC[C@@H](O)[C@@H](O)CO` [ERY, erythritol], the “hepatic mRNA expression level of ACC1” value was “significantly lower than those in the ND group”.
On the same count and under the same terms, to `O=C[C@H](O)[C@@H](O)[C@H](O)[C@H](O)CO` [GLU, D-glucose] belongs “significantly lower than those in the ND group”; to `O=C(CO)[C@H](O)[C@H](O)[C@H](O)CO` [PSI, D-psicose], “much significantly lower than those in the ND group”.
The same measure, in the same setting: to `O=C(CO)[C@@H](O)[C@H](O)[C@H](O)CO` [FRU, D-fructose] belongs “significantly lower than those in the ND group”.
